Assay results taken from patent publication US7459447B2, “Method for treating hyperlipidemia” (Kowa Co., Ltd., priority 2004, dated 2008).

System: Hartley male guinea pigs
Test: Blood cholesterol level lowering effect in guinea pigs, oral administration once a day for 14 days
Format: in vivo, guinea pig
Conditions: ezetimibe 3 mg/kg, oral once a day for 14 days, blood collected after 18 h fast; for Reduction ratio (%) of blood cholesterol level: vs control group
Protocol: The blood cholesterol level lowering effect when a calcium salt of pitavastatin and ezetimibe were coadministered was measured by the below-described testing method. For comparison, a calcium salt of atorvastatin was used instead of the calcium salt of pitavastatin and the effect brought about by the concomitant use of two medicaments was measured in a similar manner. • 1. Animals Provided for the Test and Their Breeding Environment
Six-week-old Hartley male guinea pigs (purchased from Nippon SLC) were provided for the test. Throughout the test period, they were bred in a breeding room maintained at a light-dark cycle (a light term by a room light: from 7:00 am to 7:00 pm), a temperature of 23 ±3° C. and a humidity of 55 ±15% and fed with a solid feedstuff (“RC-4”, product of Oriental Yeast Industry) and tap water ad libitum. • 2. Preparation of Medicament
Treatment method according to the invention: The calcium salt of pitavastatin and ezetimibe were suspended in a 0.5 wt. % aqueous solution of carboxymethylcellulose sodium (product of Iwai Chemicals Company) and their concentrations were adjusted to 1 mg/mL and 3 mg/mL, respectively. Since the calcium salt of pitavastatin contained 9.43 wt. % of water, 1.1 times the weight of the dosage was weighed for correction. The suspension was refrigerated (4° C.) in a light resistant bottle and adjustment was conducted every 7 days.
Treatment method for comparison: In a similar manner to that described above except the use of the calcium salt of atorvastatin instead of the calcium salt of pitavastatin, a medicament (atorvastatin calcium 5 mg/mL) for comparison test was prepared. • 3. Testing Method
The treatment method according to the present invention: Twenty four guinea pigs were classified into four groups (each consisting of 6 guinea pigs), that is, a control group, a single administration group of pitavastatin calcium salt (1 mg/kg), a single administration group of ezetimibe (3 mg/kg), and a coadministration group of pitavastatin calcium salt (1 mg/kg) and ezetimibe (3 mg/kg) so that they differ little in the total blood cholesterol level and blood triglyceride level. These two medicaments were each administered at a dose of 1 mL/kg once a day and this administration was repeated for 14 days. To the control group, a 0.5 wt. % aqueous solution (1 mL/kg) of carboxymethylcellulose sodium was orally administered. In each group, the guinea pigs were fasted for 18 hours after the final administration and then the blood was collected from them to measure the blood cholesterol level.
Treatment method for comparison: twenty four guinea pigs were tested in a similar manner to the method according to the invention. The dosage of the calcium salt of atorvastatin was 5 mg/kg in each of the group nourished by the single use of atorvastatin calcium salt and the group nourished by the concomitant use of atorvastatin calcium salt and ezetimibe. • 4. Static Analysis and Data Processing Method
Multigroup comparison between the control group and the medicament administered group was performed using Bartlett's variance analysis—Dunnett's multiple comparative assay. A difference with a significance level less than 5% was regarded as significant. • 5. Results
A reduction ratio (%) is a value represented by ((total blood cholesterol level of control group on average−total blood cholesterol level of each group on average)/(total blood cholesterol level of control group on average))×100, while a relative index is a value represented by (total blood cholesterol level of each group on average)/(total blood cholesterol level of control group on average).

[1] = Table 2 comparison test: atorvastatin Ca 5 mg/kg
[2] = Table 1 test: pitavastatin Ca 1 mg/kg

SMILES | Relative index (total blood cholesterol level of group / control group) [1] | Reduction ratio (%) of blood cholesterol level [1] | Relative index (total blood cholesterol level of group / control group) [2] | Reduction ratio (%) of blood cholesterol level [2]
CC(C)c1c(C(=O)Nc2ccccc2)c(-c2ccccc2)c(-c2ccc(F)cc2)n1CC[C@@H](O)C[C@@H](O)CC(=O)O [atorvastatin Ca] | 0.77 | 23% | – | –
O=C1[C@H](CC[C@H](O)c2ccc(F)cc2)[C@@H](c2ccc(O)cc2)N1c1ccc(F)cc1 [ezetimibe, (3R,4S)-1-(4-fluorophenyl)-3-[(3S)-3-(4-fluorophenyl)-3-hydroxypropyl]-4-(4-hydroxyphenyl)-2-azetidinone] | 0.81 | 19% | 0.79 | 21%
O=C(O)C[C@H](O)C[C@H](O)/C=C/c1c(C2CC2)nc2ccccc2c1-c1ccc(F)cc1 [pitavastatin Ca, (3R,5S,6E)-7-[2-cyclopropyl-4-(4-fluorophenyl)-3-quinolyl]-3,5-dihydroxy-6-heptenoic acid] | – | – | 0.71 | 29%
